This data set can be described thus: Shelf life at room temperature by reverse-phase radio-HPLC. The class given is physicochemical. The procedure:
The shelf life of [^61Cu]Cu-NODAGA-PSMA I&T was assessed at room temperature in the reaction solution and the injection formulation at various time points after EoS. At pre-defined time points (up to 12 h), an aliquot was analyzed by radio-HPLC. The radiochemical purity was determined by analytical reverse-phase radio-HPLC using a Macherey Nagel Nucleodur ISIS C18 (5 μm, 250×4.6 mm) column. The results indicated a stability of over 95% up to 12 hours (Table 22).

Structures are written as SMILES.

For `O=C([O-])CN1CCN(CC(=O)[O-])CCN([C@H](CCC(=O)N[C@H](Cc2ccc(O)c(I)c2)C(=O)N[C@H](Cc2ccccc2)C(=O)N[C@H](CCCCNC(=O)CCCCCCC(=O)NCCCC[C@H](NC(=O)N[C@@H](CCC(=O)O)C(=O)O)C(=O)O)C(=O)O)C(=O)O)CC1.[61Cu+2]` [[^61Cu]Cu-NODAGA-PSMA I&T], for the setting “Injection formulation”, the “RCP by HPLC” value is on record as 99.0 ± 0.2%, the “RCP up to 3 h (n = 3)” value turned out to be 99.5 ± 0.2%, the “RCP up to 6 h (n = 3)” value was 99.0 ± 0.5% and the “RCP up to 9 h (n = 3)” value is reported as 99.1 ± 0.5%. Moreover, the “RCP up to 12 h (n = 2)” value (Injection formulation) was found to be 99.7 ± 0.41%. Where the note is “Reaction solution”, the “RCP by HPLC” value is listed as 99.4 ± 0.4%, the “RCP up to 3 h (n = 3)” value is reported as 99.6 ± 0.2%, the “RCP up to 6 h (n = 3)” value was determined as 99.5 ± 0.7% and the “RCP up to 9 h (n = 3)” value is reported as 99.1 ± 0.8%. In addition, under “Reaction solution”, the “RCP up to 12 h (n = 2)” value was found to be 99.7 ± 0.1%. For the setting “up to 12 hours”, the stability result is given as “over 95%”.

Source of the values: patent publication US20260241046A1, “PROSTATE-SPECIFIC MEMBRANE ANTIGEN RECEPTOR-TARGETING RADIOPHARMACEUTICALS AND USES THEREOF” (Nuclidium AG, priority 2024, published 2026).
